Experimental data: ChEMBL document CHEMBL1201862, “PubChem BioAssay data set” (2004)
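Where inhibition never reached the appropriate level, the endpoint shown equals the highest concentration tested. Otherwise, values were interpolated linearly from a five-concentration, 48-hour dose response in 96-well plates. GI50 marks 50% less growth.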 The source made the active and inactive calls. Cut-off read from the data, not from the text of the source: active = GI50 up to about 1.1 µM and inactive = higher.

Key:
Assay in all cases: NCI anticancer screen, dose series, 48 h
[1] = tested on: NCI-H23
[2] = tested on: DU-145
[3] = tested on: SK-MEL-28
[4] = tested on: KM12
[5] = tested on: Hs-578T
[6] = tested on: MOLT-4
[7] = tested on: MCF7
[8] = tested on: NCI-H522
[9] = tested on: COLO 205
[10] = tested on: SN12C
[11] = tested on: OVCAR-4
[12] = tested on: RXF 393
[13] = tested on: SF-268
[14] = tested on: HCT-15
[15] = tested on: OVCAR-3
[16] = tested on: CCRF-CEM
[17] = tested on: RPMI-8226
[18] = tested on: U-251
[19] = tested on: MDA-N
[20] = tested on: M14
[21] = tested on: HOP-92
[22] = tested on: UACC-62
[23] = tested on: HT-29
[24] = tested on: 786-0
[25] = tested on: HCC 2998
[26] = tested on: PC-3
[27] = tested on: CAKI-1
[28] = tested on: IGROV-1
[29] = tested on: SK-OV-3
[30] = tested on: UACC-257
[31] = tested on: NCI/ADR-RES
[32] = tested on: T47D
[33] = tested on: A549
[34] = tested on: SNB-19
[35] = tested on: OVCAR-8
[36] = tested on: ACHN
[37] = tested on: BT-549
[38] = tested on: SW-620
[39] = tested on: HL-60
[40] = tested on: MDA-MB-435
[41] = tested on: EKVX
[42] = tested on: TK-10
[43] = tested on: Malme-3M
[44] = tested on: SK-MEL-5
[45] = tested on: K562
[46] = tested on: A498
[47] = tested on: OVCAR-5
[48] = tested on: SNB-75
[49] = tested on: UO-31
[50] = tested on: NCI-H460
[51] = tested on: HOP-62
[52] = tested on: HCT-116
[53] = tested on: NCI-H226
[54] = tested on: SF-295
[55] = tested on: MDA-MB-231
[56] = tested on: LOX IMVI
[57] = tested on: SK-MEL-2
[58] = tested on: SF-539

Measured: GI50

COc1ccc(CC(N)c2ccc(OC)cc2)cc1 (stereo not drawn)
inactive: [1] > 100 µM | [2] > 100 µM | [3] 38.4 µM | [4] 50 µM | [5] 43.9 µM | [6] 57.8 µM | [7] 44.5 µM | [8] > 100 µM | [9] 18.2 µM | [10] > 100 µM | [11] > 100 µM | [12] 72.1 µM | [13] > 100 µM | [15] > 100 µM | [16] 70.5 µM | [17] 28.1 µM | [18] 95.3 µM | [19] 36.8 µM | [20] 48 µM | [21] 29.4 µM | [22] 71.3 µM | [23] 45.4 µM | [24] > 100 µM | [25] 18.3 µM | [26] 42.8 µM | [27] > 100 µM | [28] 66.7 µM | [29] 71.4 µM | [30] 42 µM | [31] > 100 µM | [32] 46.3 µM | [33] > 100 µM | [34] > 100 µM | [35] > 100 µM | [36] > 100 µM | [37] > 100 µM | [38] > 100 µM | [39] 49.7 µM | [40] 37.2 µM | [41] > 100 µM | [42] > 100 µM | [43] 37.4 µM | [44] 43.4 µM | [45] 33.1 µM | [46] > 100 µM | [47] > 100 µM | [48] 77.1 µM | [49] 90.6 µM | [50] 39.9 µM | [51] > 100 µM | [52] 92.9 µM | [53] 76.2 µM | [54] > 100 µM | [55] 84.9 µM | [56] 57.5 µM
> 100 µM: [14]

N#Cc1c(C#N)c(SSc2c(C#N)c(C#N)c(N)n2-c2ccccc2)n(-c2ccccc2)c1N
2.77 µM: [14]
inactive: [1] 23.6 µM | [2] 18.6 µM | [3] 20.3 µM | [57] 21.1 µM | [4] 25.4 µM | [5] 24.7 µM | [6] 5.89 µM | [7] 2.39 µM | [8] 3.47 µM | [9] 1.99 µM | [10] 19.7 µM | [11] 2.25 µM | [12] 18.3 µM | [13] 27.7 µM | [15] 16.7 µM | [17] 2.78 µM | [18] 21.6 µM | [19] 28.8 µM | [20] 7.69 µM | [21] 2.08 µM | [22] 16.9 µM | [23] 40.5 µM | [24] 9.44 µM | [25] 20.9 µM | [26] 20.9 µM | [27] 2.14 µM | [28] 28.4 µM | [29] 19.3 µM | [30] 24.8 µM | [31] 33.8 µM | [32] 2.44 µM | [33] 36 µM | [34] 22.4 µM | [35] > 100 µM | [36] 5.08 µM | [37] 5.57 µM | [38] 1.77 µM | [40] 14.9 µM | [58] 92.9 µM | [41] 20.9 µM | [42] 1.82 µM | [43] 2 µM | [44] 6.22 µM | [45] 4.38 µM | [46] 20.7 µM | [47] 36.4 µM | [48] 31.8 µM | [49] 1.91 µM | [50] 30.6 µM | [51] 28.4 µM | [52] 3.33 µM | [53] 22.3 µM | [54] 24.9 µM | [55] 40.9 µM | [56] 86.7 µM

O=C1/C(=C/c2ccc3c(c2)OCO3)Sc2scc(-c3ccc(O)c(O)c3)[n+]21
inactive: [1] 2.69 µM | [2] 4.44 µM | [3] 3.08 µM | [57] 10.8 µM | [4] 2.65 µM | [5] 7.13 µM | [7] 3.22 µM | [9] 2.55 µM | [10] 2.04 µM | [11] 4.2 µM | [12] 3.11 µM | [13] 3.9 µM | [15] 4.61 µM | [17] 1.71 µM | [18] 4.62 µM | [19] 3.12 µM | [20] 3 µM | [21] 2.65 µM | [22] 2.67 µM | [23] 3.74 µM | [24] 1.92 µM | [25] 1.82 µM | [26] 4.38 µM | [27] 1.53 µM | [28] 2.7 µM | [29] 8.11 µM | [30] 3.6 µM | [31] 1.87 µM | [32] 2.97 µM | [33] 11.1 µM | [34] 10.7 µM | [35] 2.99 µM | [36] 1.86 µM | [37] 2.04 µM | [38] 1.99 µM | [40] 3.3 µM | [58] 2.31 µM | [41] 2.67 µM | [42] 2.04 µM | [44] 2.54 µM | [47] 8.32 µM | [49] 2.29 µM | [50] 3.56 µM | [51] 6.44 µM | [52] 1.96 µM | [53] 13.3 µM | [54] 10 µM | [55] 3.54 µM | [56] 2.34 µM
1.63 µM: [14]
active: [6] 0.927 µM | [8] 1.04 µM | [16] 0.264 µM | [39] 0.325 µM | [45] 0.506 µM | [48] 0.644 µM

Oc1[nH]c(Nc2ccc(Cl)c(C(F)(F)F)c2)nc2ncnc1-2
> 100 µM: [14]
inactive: [1] 73.8 µM | [2] 36.1 µM | [57] 25.5 µM | [4] 44.8 µM | [5] 38.5 µM | [6] 23.2 µM | [7] 27.2 µM | [8] 14.2 µM | [9] 27.2 µM | [10] 32.5 µM | [11] 72.1 µM | [12] 26.1 µM | [13] 36.2 µM | [15] 36.6 µM | [16] 21 µM | [17] > 100 µM | [18] 50.5 µM | [19] 25.6 µM | [20] 57.4 µM | [21] 58.5 µM | [22] 32.6 µM | [23] 33 µM | [24] 25.7 µM | [25] 24.7 µM | [26] 33 µM | [27] > 100 µM | [28] 35.7 µM | [29] > 100 µM | [30] 59.2 µM | [31] > 100 µM | [32] 24.5 µM | [33] > 100 µM | [34] 45.1 µM | [35] 31.8 µM | [36] 44.5 µM | [37] 36.6 µM | [38] 70 µM | [40] 50.2 µM | [58] 26 µM | [41] 53.1 µM | [42] 52.6 µM | [43] 30.3 µM | [44] 40.4 µM | [45] 39.6 µM | [46] 24 µM | [47] 65.9 µM | [48] 33.9 µM | [49] > 100 µM | [50] 51.8 µM | [51] > 100 µM | [52] 34.7 µM | [53] > 100 µM | [54] > 100 µM | [55] 42.2 µM | [56] 25.5 µM

CC1OC(OC2C(OC(=O)[C@@H]3CC(C)(C)C[C@H]4C5=CC[C@@H]6[C@@]7(C)C[C@H](O)[C@H](OC8OC(CO)C(O)C(O)C8O)[C@@](C)(CO)[C@@H]7[C@H](O)C[C@@]6(C)[C@]5(C)CC[C@@]34C)OCC(O)C2O)C(O)C(O)C1O (stereo partly drawn)
> 7.5 µM: [14]
inactive: [1] > 7.5 µM | [2] > 7.5 µM | [57] > 7.5 µM | [4] > 7.5 µM | [5] > 7.5 µM | [6] > 7.5 µM | [7] > 7.5 µM | [8] > 7.5 µM | [9] > 7.5 µM | [10] > 7.5 µM | [11] > 7.5 µM | [12] > 7.5 µM | [13] > 7.5 µM | [15] > 7.5 µM | [16] > 7.5 µM | [18] > 7.5 µM | [19] > 7.5 µM | [20] > 7.5 µM | [21] > 7.5 µM | [22] > 7.5 µM | [23] > 7.5 µM | [24] > 7.5 µM | [25] > 7.5 µM | [26] > 7.5 µM | [27] > 7.5 µM | [28] > 7.5 µM | [29] > 7.5 µM | [30] > 7.5 µM | [31] > 7.5 µM | [32] > 7.5 µM | [34] > 7.5 µM | [35] > 7.5 µM | [36] > 7.5 µM | [37] > 7.5 µM | [38] > 7.5 µM | [39] > 7.5 µM | [40] > 7.5 µM | [58] > 7.5 µM | [41] > 7.5 µM | [42] > 7.5 µM | [43] > 7.5 µM | [44] > 7.5 µM | [45] > 7.5 µM | [47] > 7.5 µM | [48] > 7.5 µM | [49] > 7.5 µM | [50] > 7.5 µM | [51] > 7.5 µM | [52] > 7.5 µM | [53] > 7.5 µM | [54] > 7.5 µM | [55] > 7.5 µM | [56] > 7.5 µM
